For three compounds, Ki, IC50 and Kd results are on record in article PMC4011867 (PLoS ONE, 2014).

What all share (parameters): species or system Acyrthosiphon pisum
Test [1] addresses T1, A. pisum native nAChRs, [3H]-imidacloprid binding sites (alpha-Bgt-insensitive).
T1 construct: gene Apisumα1
The test can be described thus: [3H]-IMI competition binding, filtration. Particulars: 25 nM [3H]-IMI, 10 mM Tris-HCl pH 7.4, room temperature, 4 h, low-affinity site; for Ki: Cheng-Prusoff, read-out: [^3H]-IMI / % of high affinity / Ki; for IC50: read-out: [^3H]-IMI / Bmax (fmol/mg) / IC50. The source says:
[3H]-IMI competition binding, filtration on A. pisum native nAChRs, [3H]-imidacloprid binding sites (alpha-Bgt-insensitive)

Test [2] concerns the target T2, A. pisum native nAChRs, [125I]-alpha-bungarotoxin binding sites (alpha-Bgt-sensitive).
T2 construct: gene Apisumα1
Particulars: PBS pH 7.2, 0.1% BSA, room temperature, 4 h, low-affinity site, Cheng-Prusoff, table header prints nM, text and IC50 support µM.

For test [3], the target named is T1, A. pisum native nAChRs, [3H]-imidacloprid binding sites (alpha-Bgt-insensitive). The test can be described thus: [3H]-IMI saturation binding, filtration. The following applies: 10 mM Tris-HCl pH 7.4, room temperature, 4 h; high-affinity site of two-site fit; labelled compound; read-out: [^3H]-IMI / Kd (nM) / assay level. From the text: [3H]-IMI saturation binding, filtration on A. pisum native nAChRs, [3H]-imidacloprid binding sites (alpha-Bgt-insensitive)

Setting [4] is: apparent Ki, possibly not strictly competitive.
The mark [5] stands for this setting: possibly not strictly competitive.

Like-named read-outs stand apart in the source and are kept apart here.

With `CN/C(=N\[N+](=O)[O-])NCc1cnc(Cl)s1` [clothianidin], the Ki in test [1] (setting [4]) turned out to be 127 ± 42.5 nM; in test [2] (0.08 nM [125I]-alpha-Bgt) it was 180 ± 50 nM. The IC50 in test [1] (setting [5]) was 203 ± 68 nM.
As for `O=[N+]([O-])N=C1NCCN1Cc1ccc(Cl)nc1` [imidacloprid], in test [1], the Ki was found to be 38.1 ± 6.88 nM and the IC50 is 61 ± 11 nM. In addition, in test [3], the Kd was found to be 0.16 ± 0.04 nM. In test [2] (0.6 nM [125I]-alpha-Bgt), the Ki came out at 14600 ± 1130 nM.
For `CN1COCN(Cc2cnc(Cl)s2)C1=N[N+](=O)[O-]` [thiamethoxam], the Ki in test [1] (setting [4]) was 1050 ± 63.1 nM; in test [2] (0.08 nM [125I]-alpha-Bgt), 1530 ± 650 nM. In test [1] (setting [5]), the IC50 was found to be 1680 ± 101 nM.
